Assay results from US20150320776A1, “METHOD OF INHIBITING HELICOBACTER PYLORI” (priority 2014, published 2015).
Converted amounts (≈) assume the structure as drawn. Like-named read-outs stand apart in the source and are kept apart here.

Assays:
Helicobacter pylori J99 = experiment: Paper disc diffusion test, inhibition zone on agar plate; format: cell-based; details: blank disc 8 mm; for zone of inhibition at 4 mg/disc / zone of inhibition at 1 mg/disc: Helicobacter pylori, J99, read-out: inhibition growth diameter; for inhibition zone diameter (FIG. 5): amount per disc not given
Experimental: Helicobacter pylori J99 (HP J99) used in the embodiments of the present invention was purchased from Bioresource Collection and Research Center (BCRC). The cultivating condition is indicated as follows: the bacteria were inoculated onto CDC medium (CDC anaerobe 5% blood agar, BD) and then incubated at 37° C. for 48 to 72 hours. After incubation, the bacteria were further incubated under micro-aerobic condition (5% O2, 10% CO2, 85% N2). For preparation of solutions with the foregoing compound A or compound B, ethanol was used as solvent to prepare various suitable concentrations.
The test on the inhibitory effect of Helicobacter pylori with the compound A or compound B of the present invention was carried out as follows: Helicobacter pylori was first grown on a CDC agar plate containing sheep blood for 48 to 72 hours. The bacterial colony was scraped with a cotton swab or an inoculation loop and subsequently transferred into a normal saline solution (0.9% NaCl). The optical density was then adjusted to 2 Mcfarland (1-4×10^8/ml bacteria) to obtain a solution with Helicobacter pylori. Subsequently, the foregoing compound A or compound B was weighed out to prepare a series of concentrations (from 10 mg/ml to 100 mg/ml) of test solutions (40 μl) and then 40 μl of the solution were transferred onto blank paper discs. After dryness, the discs were separately stuck to a proper site on the agar plate. After incubation under micro-aerobic condition at 37° C. for 48 hours, observation was made if any inhibition zone emerged on the agar plate.
The compounds of the present invention, which were actually tested, included phenoxyacetic acid, 3,4-dihydrobenzoic acid, 3,5-diamino-benzoic acid, 4-aminophenylacetic acid, 4-nitrobenzoic acid, 2,4-dinitrobenzoic acid, 4-(dimethylamino)benzoic acid, 2-methoxyphenylacetic acid, 3-amino-4-methylbenzoic acid, 4-methylthiobenzoic acid, 4-bromphenylacetic acid, 1,4-cyclohexanedicarboxylic acid, phthalic acid, trans-cinnamic acid, 4-ethylbenzoic acid, phenylacetic acid, benzoic acid, 3-phenylpropionic acid, 4-phenylbutyric acid, 3,4-dimethoxybenzyl alcohol (1) and 4-indophenylboronic acid (2). Ethanol (3) and water (4) were used as control.

susceptible H. pylori = details: cited from earlier work; for increase of MIC90: ratio of pH 5.5 to 7.0
H. pylori J99 [1] = experiment: Minimum inhibition concentration with different pH values; format: cell-based, Helicobacter pylori; details: for MIC90: Helicobacter pylori; for MIC: pH 6.0 to pH 7.0, no change observed
H. pylori J99 [2] = experiment: Minimal bactericidal concentration (MBC); format: cell-based; details: Helicobacter pylori, kills 99.9% of bacteria of control group, 37° C., 1 to 2 hours
Experimental: Minimal bactericidal concentration (MBC) was determined by incubating test bacteria with different doses of test compounds for a period of time. Subsequently, the solutions underwent serial dilutions and the bacteria were grown on the agar plate by plate coating. At this moment, the concentration of test compound lost its inhibitory ability because of being diluted via serial dilutions and plate coating and it could be seen from the clear bacterial solution if the bacteria were dead. If bacteria growth was inhibited by the concentration of test compound, the bacteria might continue to grow after the abovementioned treatment and appeared in the form of colonies. In an embodiment of the present invention, H. pylori J99 were pre-cultivated for two days and colonies were scraped and suspended in saline solution. The bacterial concentration was then adjusted to 2 McFarland. After addition of suitable concentrations of benzoic acid and phenylacetic acid and incubation at 37° C. for 1 to 2 hours, the bacterial suspension underwent serial dilutions. 100 μl aliquots were taken from each suspension and applied on CDC plates. The plates were incubated under micro-aerobic condition at 37° C. for two days. The number of bacterial colonies was noted down and the concentration of test compound, that is able to kill 99.9% of bacteria of control group, was used as minimal bactericidal concentration.

In the case of `O=C(O)C1CCC(C(=O)O)CC1` (stereo not drawn) [1,4-cyclohexanedicarboxylic acid], the zone of inhibition at 4 mg/disc (Helicobacter pylori J99; 4 mg/disc) is reported as 12 mm.
In the case of `O=C(O)c1ccc([N+](=O)[O-])cc1[N+](=O)[O-]` [2,4-dinitrobenzoic acid], the inhibition growth diameter (Helicobacter pylori J99; 4 mg/disc) is reported as 33 mm.
With `COc1ccccc1CC(=O)O` [2-methoxyphenylacetic acid] the zone of inhibition at 4 mg/disc (Helicobacter pylori J99; 4 mg/disc) was 16 mm.
In the case of `COc1ccc(CO)cc1OC` [3,4-dimethoxybenzyl alcohol], the zone of inhibition at 4 mg/disc (Helicobacter pylori J99; 4 mg/disc) is reported as 20 mm and the “inhibition zone diameter (FIG. 5)” value (Helicobacter pylori J99) is reported as 20 mm.
`Nc1cc(N)cc(C(=O)O)c1` [3,5-diaminobenzoic acid] showed a zone of inhibition at 4 mg/disc (Helicobacter pylori J99; 4 mg/disc) of 12 mm.
Compound `Cc1ccc(C(=O)O)cc1N` [3-amino-4-methylbenzoic acid] has a zone of inhibition at 4 mg/disc (Helicobacter pylori J99; 4 mg/disc) of 14 mm.
`O=C(O)CCc1ccccc1` [3-phenylpropionic acid] gave a zone of inhibition at 1 mg/disc (Helicobacter pylori J99; 1 mg/disc) of 14 mm and a zone of inhibition at 4 mg/disc (Helicobacter pylori J99; 4 mg/disc) of 34 mm.
For `CN(C)c1ccc(C(=O)O)cc1` [4-(dimethylamino)benzoic acid], the zone of inhibition at 4 mg/disc (Helicobacter pylori J99; 4 mg/disc) was 26 mm.
`Nc1ccc(CC(=O)O)cc1` [4-aminophenylacetic acid] showed a zone of inhibition at 4 mg/disc (Helicobacter pylori J99; 4 mg/disc) of 12 mm.
Work on `O=C(O)Cc1ccc(Br)cc1` [4-bromphenylacetic acid] yielded an inhibition growth diameter (Helicobacter pylori J99; 1 mg/disc) of 16 mm and an inhibition growth diameter (Helicobacter pylori J99; 4 mg/disc) of 35 mm.
`CCc1ccc(C(=O)O)cc1` [4-ethylbenzoic acid] showed a zone of inhibition at 1 mg/disc (Helicobacter pylori J99; 1 mg/disc) of 30 mm.
With `OB(O)c1ccc(I)cc1` [4-indophenylboronic acid] the inhibition growth diameter (Helicobacter pylori J99; 1 mg/disc) was 35 mm and the “inhibition zone diameter (FIG. 5)” value (Helicobacter pylori J99) was 35 mm.
For `Cc1ccc(C(O)=S)cc1` [4-methylthiobenzoic acid], the zone of inhibition at 1 mg/disc (Helicobacter pylori J99; 1 mg/disc) was 18 mm and the zone of inhibition at 4 mg/disc (Helicobacter pylori J99; 4 mg/disc) was 40 mm.
`O=C(O)c1ccc([N+](=O)[O-])cc1` [4-nitrobenzoic acid] showed a zone of inhibition at 1 mg/disc (Helicobacter pylori J99; 1 mg/disc) of 70 mm.
In the case of `O=C(O)CCCc1ccccc1` [4-phenylbutyric acid], the zone of inhibition at 4 mg/disc (Helicobacter pylori J99; 4 mg/disc) is reported as 28 mm.
For `CC1(C)S[C@@H]2[C@H](NC(=O)[C@H](N)c3ccccc3)C(=O)N2[C@H]1C(=O)O` [Ampicillin], the MIC90 (susceptible H. pylori; pH 5.5) is listed as 0.5 µg/mL (≈ 1.43 µM), the MIC90 (susceptible H. pylori; pH 6.0) is listed as 0.25 µg/mL (≈ 0.715 µM) and the MIC90 (susceptible H. pylori; pH 7.5) is listed as 0.06 µg/mL (≈ 0.172 µM).
`O=C(O)c1ccccc1` [Benzoic acid] gave an MIC90 (H. pylori J99 [1]; J99, pH 6) of 0.06 µg/mL (≈ 0.491 µM), an MIC90 (H. pylori J99 [1]; J99, pH 6.5) of 0.06 µg/mL (≈ 0.491 µM) and an MIC90 (H. pylori J99 [1]; J99, pH 7) of 0.06 µg/mL (≈ 0.491 µM). It also gave an MIC (H. pylori J99 [1]) of 0.06, a zone of inhibition at 4 mg/disc (Helicobacter pylori J99; 4 mg/disc) of 24 mm and an MBC (H. pylori J99 [2]) of 500 µg/mL (≈ 4090 µM).
For `O=C([O-])CC(O)(CC(=O)[O-])C(=O)[O-].O=C([O-])CC(O)(CC(=O)[O-])C(=O)[O-].[Bi+3].[K+].[K+].[K+]` [Bismuth subcitrate], the MIC90 (susceptible H. pylori; pH 6.0) is given as 8 µg/mL and the MIC90 (susceptible H. pylori; pH 7.5) is given as 16 µg/mL.
In the case of `CC1=C(C(=O)O)N2C(=O)[C@@H](NC(=O)[C@H](N)c3ccccc3)[C@H]2SC1` [Cefalexin], the MIC90 (susceptible H. pylori; pH 5.5) is given as 32 µg/mL (≈ 92.1 µM), the MIC90 (susceptible H. pylori; pH 6.0) is given as 16 µg/mL (≈ 46.1 µM) and the MIC90 (susceptible H. pylori; pH 7.5) is given as 2 µg/mL (≈ 5.76 µM).
In the case of `O=C(O)c1cn(C2CC2)c2cc(N3CCNCC3)c(F)cc2c1=O` [Ciprofloxacin], the MIC90 (susceptible H. pylori; pH 5.5) is listed as 2 µg/mL (≈ 6.04 µM), the MIC90 (susceptible H. pylori; pH 6.0) is listed as 0.5 µg/mL (≈ 1.51 µM) and the MIC90 (susceptible H. pylori; pH 7.5) is listed as 0.12 µg/mL (≈ 0.362 µM).
For `CC[C@H]1OC(=O)[C@H](C)[C@@H](O[C@H]2C[C@@](C)(OC)[C@@H](O)[C@H](C)O2)[C@H](C)[C@@H](O[C@@H]2O[C@H](C)C[C@H](N(C)C)[C@H]2O)[C@](C)(OC)C[C@@H](C)C(=O)[C@H](C)[C@@H](O)[C@]1(C)O` [Clarithromycin], the MIC90 (susceptible H. pylori; pH 5.5) is given as 0.25 µg/mL (≈ 0.334 µM), the MIC90 (susceptible H. pylori; pH 6.0) is given as 0.06 µg/mL (≈ 0.0802 µM) and the MIC90 (susceptible H. pylori; pH 7.5) is given as 0.03 µg/mL (≈ 0.0401 µM). For the same compound, the “increase of MIC90” value (susceptible H. pylori) was “eight”.
For `CC[C@H]1OC(=O)[C@H](C)[C@@H](O[C@H]2C[C@@](C)(OC)[C@@H](O)[C@H](C)O2)[C@H](C)[C@@H](O[C@@H]2O[C@H](C)C[C@H](N(C)C)[C@H]2O)[C@](C)(O)C[C@@H](C)C(=O)[C@H](C)[C@@H](O)[C@]1(C)O` [Erythromycin], the MIC90 (susceptible H. pylori; pH 5.5) is listed as 8 µg/mL (≈ 10.9 µM), the MIC90 (susceptible H. pylori; pH 6.0) is listed as 2 µg/mL (≈ 2.73 µM) and the MIC90 (susceptible H. pylori; pH 7.5) is listed as 0.06 µg/mL (≈ 0.0818 µM).
For `Cc1ncc([N+](=O)[O-])n1CCO` [Metronidazole], the MIC90 (susceptible H. pylori; pH 5.5) is listed as 2 µg/mL (≈ 11.7 µM), the MIC90 (susceptible H. pylori; pH 6.0) is listed as 2 µg/mL (≈ 11.7 µM) and the MIC90 (susceptible H. pylori; pH 7.5) is listed as 2 µg/mL (≈ 11.7 µM).
For `O=C(O)COc1ccccc1` [Phenoxyacetic acid], the zone of inhibition at 4 mg/disc (Helicobacter pylori J99; 4 mg/disc) was 17 mm.
`O=C(O)Cc1ccccc1` [Phenylacetic acid] showed an MIC90 (H. pylori J99 [1]; J99, pH 6.5, read-out: MIC90) of 0.125 µg/mL (≈ 0.918 µM), an MIC90 (H. pylori J99 [1]; J99, pH 7) of 0.125 µg/mL (≈ 0.918 µM) and an MIC90 (H. pylori J99 [1]; J99, pH 6.0, read-out: MIC90) of 0.125 µg/mL (≈ 0.918 µM). For the same compound, the MIC (H. pylori J99 [1]) was 0.125, the zone of inhibition at 4 mg/disc (Helicobacter pylori J99; 4 mg/disc) was 22 mm and the MBC (H. pylori J99 [2]) was 1000 µg/mL (≈ 7340 µM).
`O=C(O)/C=C/c1ccccc1` [Trans-cinnamic acid] showed a zone of inhibition at 1 mg/disc (Helicobacter pylori J99; 1 mg/disc) of 25 mm.
For `CC1(C)S[C@@H]2[C@H](NC(=O)[C@H](N)c3ccc(O)cc3)C(=O)N2[C@H]1C(=O)O` [amoxicillin], the “increase of MIC90” value (susceptible H. pylori) is listed as “eight”.
`O=C(O)c1ccccc1C(=O)O` [phthalic acid] showed a zone of inhibition at 4 mg/disc (Helicobacter pylori J99; 4 mg/disc) of 12 mm.
For Penicillin, the MIC90 (susceptible H. pylori; pH 5.5) is listed as 0.5 µg/mL, the MIC90 (susceptible H. pylori; pH 6.0) is listed as 0.5 µg/mL and the MIC90 (susceptible H. pylori; pH 7.5) is listed as 0.03 µg/mL.
